Literature values as cited in US7071180B2, “Certain arylaliphatic and heteroaryl-aliphatic piperazinyl pyrazines and their use in the treatment of serotonin-related diseases” (Biovitrum AB, priority 1999, dated 2006).

Columns and labels:
5-HT2c receptor [1] = molecular target: T1, 5-HT2c receptor (Mus musculus, UniProt P34968); conditions: mice that express the normal 5-HT2c receptor; cited from earlier work
T1 construct: mice that express the normal 5-HT2c receptor; host or cells: mice (in vivo)
T1 sequence (P34968 33-459): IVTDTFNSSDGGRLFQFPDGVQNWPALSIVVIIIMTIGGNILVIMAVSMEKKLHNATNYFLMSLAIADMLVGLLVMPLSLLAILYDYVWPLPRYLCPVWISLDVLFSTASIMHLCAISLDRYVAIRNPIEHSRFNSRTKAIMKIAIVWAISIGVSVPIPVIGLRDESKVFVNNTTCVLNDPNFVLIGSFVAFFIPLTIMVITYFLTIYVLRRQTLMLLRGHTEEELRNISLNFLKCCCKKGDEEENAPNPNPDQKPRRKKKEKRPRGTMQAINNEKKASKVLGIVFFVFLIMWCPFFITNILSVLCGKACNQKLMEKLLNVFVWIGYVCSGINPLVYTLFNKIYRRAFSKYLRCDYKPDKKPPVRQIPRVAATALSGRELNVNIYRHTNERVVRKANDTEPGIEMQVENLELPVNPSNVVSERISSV

5-HT2c receptor [2] = conditions: mice expressing the mutated inactive form of the 5-HT2c receptor; cited from earlier work
[3] = obese subjects, after 2 weeks of treatment; cited from earlier work

## Clc1cccc(N2CCNCC2)c1 [mCPP, m-chlorophenylpiperazine]
5-HT2c receptor [1]
  body weight effect: causes weight loss
5-HT2c receptor [2]
  body weight effect: lacks activity
[3]
  body weight effect: slight but sustained reduction in body weight
